Literature values as cited in patent publication US20060189608A1, “Methods for treating ocular angiogenesis, retinal edema, retinal ischemia, and diabetic retinopathy using selective RTK inhibitors” (Alcon, Inc., priority 2005, published 2006).

What was measured:
[1] = tested on: diabetic macular edema; details: human patients with diabetic macular edema, cited from earlier work
[2] = tested on: preretinal and choroidal NV; details: oral administration, mice; cited from earlier work

In the case of `CO[C@@H]1[C@H](N(C)C(=O)c2ccccc2)C[C@H]2O[C@]1(C)n1c3ccccc3c3c4c(c5c6ccccc6n2c5c31)C(=O)NC4` [PKC-412], the “macular edema and visual acuity” value ([1]; pilot results) is given as “a reduction in macular edema and an improvement in visual acuity”, the “liver toxicity” value [1] is given as “concerns related to liver toxicity halted the clinical trials” and the “effect on preretinal and choroidal NV” value [2] is given as “inhibited both preretinal and choroidal NV in mice”.
